The source of these data is US20220152188A1, “TLR4-TLR7 LIGAND FORMULATIONS AS VACCINE ADJUVANTS” (The Regents of the University of California, priority 2019, published 2022).

Format in all cases: cell-based
Common to all, as to settings: Compound 1 = 100

For test [1], the system named is IL-6. In words: IL-6, mouse (Tables 1-3).
Test [2] has as its system IP-10. Description: IP-10, mouse (Tables 1-3).
Test [3] addresses T1, TLR4 (Mus musculus, UniProt Q9JHF9+Q9QUK6).
T1 sequence (Q9QUK6 26-835): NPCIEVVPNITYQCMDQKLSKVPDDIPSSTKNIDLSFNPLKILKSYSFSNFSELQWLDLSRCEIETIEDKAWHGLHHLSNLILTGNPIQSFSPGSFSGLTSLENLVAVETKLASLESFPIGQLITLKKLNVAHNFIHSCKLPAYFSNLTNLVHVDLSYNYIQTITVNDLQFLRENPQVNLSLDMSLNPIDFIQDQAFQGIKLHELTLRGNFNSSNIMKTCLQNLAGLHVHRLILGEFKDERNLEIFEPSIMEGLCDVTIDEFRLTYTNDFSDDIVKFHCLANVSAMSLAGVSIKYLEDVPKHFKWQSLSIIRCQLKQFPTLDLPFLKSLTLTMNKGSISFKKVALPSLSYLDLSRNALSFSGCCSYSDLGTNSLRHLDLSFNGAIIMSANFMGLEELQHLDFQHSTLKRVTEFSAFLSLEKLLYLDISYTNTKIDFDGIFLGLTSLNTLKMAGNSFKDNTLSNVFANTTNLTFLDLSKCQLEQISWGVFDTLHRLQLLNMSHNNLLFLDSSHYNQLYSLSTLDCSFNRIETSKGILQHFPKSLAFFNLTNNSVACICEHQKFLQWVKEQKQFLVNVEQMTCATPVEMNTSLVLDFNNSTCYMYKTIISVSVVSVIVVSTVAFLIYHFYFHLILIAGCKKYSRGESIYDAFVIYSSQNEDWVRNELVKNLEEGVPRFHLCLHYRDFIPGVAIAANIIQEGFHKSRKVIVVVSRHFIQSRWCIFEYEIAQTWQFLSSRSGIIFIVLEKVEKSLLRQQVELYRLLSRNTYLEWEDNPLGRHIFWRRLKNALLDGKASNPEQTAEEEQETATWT
T1 sequence (Q9JHF9 19-160): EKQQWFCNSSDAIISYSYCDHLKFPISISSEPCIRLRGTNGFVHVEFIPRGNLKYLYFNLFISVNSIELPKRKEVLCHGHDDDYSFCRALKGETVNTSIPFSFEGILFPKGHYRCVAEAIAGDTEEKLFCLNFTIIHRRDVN
Description: TLR4, mouse (Tables 1-3).

The subject of test [4] is IL-8. In words: IL-8, human (Tables 1-3).
Test [5] concerns the target TLR4 (Homo sapiens, UniProt O00206+Q9Y6Y9). Description: TLR4, human (Tables 1-3).
Setting [6] is: Table 1, R^3 series, footnotes not given.
Note: test concentration or dose not given here.

Sequence of TLR4 (Homo sapiens, UniProt O00206+Q9Y6Y9) (O00206 24-839): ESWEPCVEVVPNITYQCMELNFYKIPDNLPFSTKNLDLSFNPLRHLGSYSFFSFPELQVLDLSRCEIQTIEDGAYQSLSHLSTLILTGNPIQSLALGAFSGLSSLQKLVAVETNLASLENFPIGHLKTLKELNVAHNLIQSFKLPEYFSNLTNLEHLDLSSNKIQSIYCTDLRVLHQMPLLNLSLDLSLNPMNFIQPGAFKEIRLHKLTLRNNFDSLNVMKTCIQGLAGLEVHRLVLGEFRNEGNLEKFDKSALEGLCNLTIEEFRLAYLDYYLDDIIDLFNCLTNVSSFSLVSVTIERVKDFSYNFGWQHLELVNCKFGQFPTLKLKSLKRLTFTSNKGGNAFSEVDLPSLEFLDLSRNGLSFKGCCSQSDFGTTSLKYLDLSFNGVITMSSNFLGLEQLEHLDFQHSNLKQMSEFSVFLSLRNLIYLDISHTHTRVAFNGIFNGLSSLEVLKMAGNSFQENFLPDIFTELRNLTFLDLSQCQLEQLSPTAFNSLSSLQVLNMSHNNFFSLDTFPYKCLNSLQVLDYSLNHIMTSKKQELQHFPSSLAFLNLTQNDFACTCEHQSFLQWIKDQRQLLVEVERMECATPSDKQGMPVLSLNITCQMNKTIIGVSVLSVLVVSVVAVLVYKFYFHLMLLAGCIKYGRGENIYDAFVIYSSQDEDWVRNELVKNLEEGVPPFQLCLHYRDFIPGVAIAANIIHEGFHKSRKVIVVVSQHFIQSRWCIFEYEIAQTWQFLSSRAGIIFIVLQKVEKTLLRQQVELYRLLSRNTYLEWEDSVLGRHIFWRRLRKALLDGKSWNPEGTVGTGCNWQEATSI
Sequence of TLR4 (Homo sapiens, UniProt O00206+Q9Y6Y9) (Q9Y6Y9 17-160 limits assumed): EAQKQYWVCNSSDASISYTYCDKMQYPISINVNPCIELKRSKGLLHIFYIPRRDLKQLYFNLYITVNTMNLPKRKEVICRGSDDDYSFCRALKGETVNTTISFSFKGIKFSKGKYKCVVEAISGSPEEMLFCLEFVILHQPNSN

Turning to `Cn1c2ccccc2c2nc(SCC(=O)NC3CCCCC3)n(-c3ccccc3)c(=O)c21` [Compound 42], the “mouse IL-6” value in test [1] (setting [6]) amounted to 101. For the same compound, in test [2] (Table 1, R^3 series), the “mouse IP-10” value worked out at 99. The “mouse TLR4” value in test [3] (Table 1, R^3 series) worked out at 100. In test [4] (Table 1, R^3 series), the “human IL-8” value was found to be 79. For the same compound, the “human TLR4” value in test [5] (Table 1, R^3 series) was determined as 92.
`O=C(CSc1nc2c([nH]c3ccccc32)c(=O)n1-c1ccc(F)cc1)NC1CCCCC1` [Compound 37]: the “mouse IL-6” value in test [1] (Table 3, R^1 series) amounted to 48. Besides, the “mouse IP-10” value in test [2] (Table 3, R^1 series) stood at 72. In test [3] (Table 3, R^1 series), the “mouse TLR4” value is reported as 41. For the same compound, the “human IL-8” value in test [4] (Table 3, R^1 series) worked out at 5. The “human TLR4” value in test [5] (Table 3, R^1 series) is reported as 51.
`CC(C)(C)CCNC(=O)CSc1nc2c([nH]c3ccccc32)c(=O)n1-c1ccccc1` [Compound 28]: in test [1] (Table 2, R^2 series), the “mouse IL-6” value turned out to be 99. For the same compound, in test [2] (Table 2, R^2 series), the “mouse IP-10” value turned out to be 85. For the same compound, the “mouse TLR4” value in test [3] (Table 2, R^2 series) was 126. In addition, the “human IL-8” value in test [4] (Table 2, R^2 series) worked out at 95. Also, the “human TLR4” value in test [5] (Table 2, R^2 series) came out at 72.
For `CCC(C)CCNC(=O)CSc1nc2c([nH]c3ccccc32)c(=O)n1-c1ccccc1` (stereo not drawn) [Compound 29], in that order: 30, 45, 29, 23 and 17.
For `O=C(CSc1nc2c([nH]c3ccccc32)c(=O)n1-c1ccccc1)NC1CCCCCC1` [Compound 9], in that order: 126, 107, 99, 118 and 100.
For `CC(C)CCNC(=O)CSc1nc2c([nH]c3ccccc32)c(=O)n1-c1ccccc1` [Compound 27], the “mouse IL-6” value in test [1] (Table 2, R^2 series) was 61. Further, in test [2] (Table 2, R^2 series), the “mouse IP-10” value stood at 62. The “mouse TLR4” value in test [3] (Table 2, R^2 series) was determined as 56. Further, the “human IL-8” value in test [4] (Table 2, R^2 series) was 53. For the same compound, the “human TLR4” value in test [5] (Table 2, R^2 series) was found to be 38.
Take `O=C(CSc1nc2c([nH]c3ccccc32)c(=O)n1-c1ccccc1)NC1CCCCC1` [Compound 1]: the “mouse IL-6” value is reported as 100 in test [1] (setting [6]); 100 in test [1] (Table 2, R^2 series); 100 in test [1] (Table 3, R^1 series). Also, the “mouse IP-10” value turned out to be 100 in test [2] (Table 1, R^3 series); 100 in test [2] (Table 2, R^2 series); 100 in test [2] (Table 3, R^1 series). In addition, the “mouse TLR4” value in test [3] (Table 1, R^3 series) is listed as 100; in test [3] (Table 2, R^2 series) it was 100; in test [3] (Table 3, R^1 series) it was 100. The “human IL-8” value is 100 in test [4] (Table 1, R^3 series); 100 in test [4] (Table 2, R^2 series); 100 in test [4] (Table 3, R^1 series). Also, the “human TLR4” value in test [5] (Table 1, R^3 series) is 100; in test [5] (Table 2, R^2 series) it was 100; in test [5] (Table 3, R^1 series) it was 100.
Turning to `CC(C)CNC(=O)CSc1nc2c([nH]c3ccccc32)c(=O)n1-c1ccccc1` [Compound 26], the “mouse IL-6” value in test [1] (Table 2, R^2 series) came to 44. The “mouse IP-10” value in test [2] (Table 2, R^2 series) is 53. Further, the “mouse TLR4” value in test [3] (Table 2, R^2 series) was determined as 24. Moreover, the “human IL-8” value in test [4] (Table 2, R^2 series) was 11. Further, the “human TLR4” value in test [5] (Table 2, R^2 series) amounted to 21.
For `O=C(CSc1nc2c([nH]c3ccccc32)c(=O)n1-c1ccccc1)NC1CCCC1` [Compound 11], in that order: 53, 52, 28, 5 and 23.
For `O=C(CSc1nc2c([nH]c3ccccc32)c(=O)n1-c1ccccc1)Nc1nccs1` [Compound 21], in that order: 1, under 1, 2, 5 and 12.
With `O=C(CSc1nc2c([nH]c3ccccc32)c(=O)n1-c1ccccc1)Nc1ccc(F)cc1` [Compound 14], the “mouse IL-6” value in test [1] (Table 2, R^2 series) amounted to 103. In test [2] (Table 2, R^2 series), the “mouse IP-10” value is listed as 70. The “mouse TLR4” value in test [3] (Table 2, R^2 series) amounted to 81. For the same compound, the “human IL-8” value in test [4] (Table 2, R^2 series) is given as 107. Also, the “human TLR4” value in test [5] (Table 2, R^2 series) is reported as 108.
Consider `O=C(CSc1nc2c([nH]c3ccccc32)c(=O)n1CCc1ccccc1)NC1CCCCC1` [Compound 40], for which, in test [1] (Table 3, R^1 series), the “mouse IL-6” value is recorded as under 1. For the same compound, the “mouse IP-10” value in test [2] (Table 3, R^1 series) was under 1. Further, in test [3] (Table 3, R^1 series), the “mouse TLR4” value worked out at 1. Also, the “human IL-8” value in test [4] (Table 3, R^1 series) worked out at 5. Further, the “human TLR4” value in test [5] (Table 3, R^1 series) amounted to 1.
Take `CCCC(C)NC(=O)CSc1nc2c([nH]c3ccccc32)c(=O)n1-c1ccccc1` (stereo not drawn) [Compound 30]: in test [1] (Table 2, R^2 series), the “mouse IL-6” value amounted to 12. Besides, in test [2] (Table 2, R^2 series), the “mouse IP-10” value was 55. In addition, the “mouse TLR4” value in test [3] (Table 2, R^2 series) turned out to be 17. Besides, the “human IL-8” value in test [4] (Table 2, R^2 series) is given as 6. Further, the “human TLR4” value in test [5] (Table 2, R^2 series) is listed as 13.
For `Cc1cccc(NC(=O)CSc2nc3c([nH]c4ccccc43)c(=O)n2-c2ccccc2)c1` [Compound 17], in that order: 19, 55, 13, 54 and 116.
For `CCCCCCCCCCCCn1c2ccccc2c2nc(SCC(=O)NC3CCCCC3)n(-c3ccccc3)c(=O)c21` [Compound 50], the “mouse IL-6” value in test [1] (setting [6]) is given as under 1. The “mouse IP-10” value in test [2] (Table 1, R^3 series) was under 1. In addition, the “mouse TLR4” value in test [3] (Table 1, R^3 series) came out at 4. Moreover, the “human IL-8” value in test [4] (Table 1, R^3 series) is listed as under 1. For the same compound, the “human TLR4” value in test [5] (Table 1, R^3 series) amounted to 10.
Turning to `Cc1ccc(-n2c(SCC(=O)NC3CCCCC3)nc3c([nH]c4ccccc43)c2=O)cc1` [Compound 38], the “mouse IL-6” value in test [1] (Table 3, R^1 series) is recorded as under 1. The “mouse IP-10” value in test [2] (Table 3, R^1 series) was under 1. In addition, in test [3] (Table 3, R^1 series), the “mouse TLR4” value is given as 2. The “human IL-8” value in test [4] (Table 3, R^1 series) is given as 6. Also, in test [5] (Table 3, R^1 series), the “human TLR4” value worked out at 2.
As to `O=C(CSc1nc2c([nH]c3ccccc32)c(=O)n1C1CCCCC1)NC1CCCCC1` [Compound 36], in test [1] (Table 3, R^1 series), the “mouse IL-6” value was 71. For the same compound, the “mouse IP-10” value in test [2] (Table 3, R^1 series) is reported as 61. The “mouse TLR4” value in test [3] (Table 3, R^1 series) turned out to be 56. The “human IL-8” value in test [4] (Table 3, R^1 series) is given as 27. Besides, the “human TLR4” value in test [5] (Table 3, R^1 series) came out at 40.
Consider `O=C(CSc1nc2c([nH]c3ccccc32)c(=O)n1-c1ccc2ccccc2c1)NC1CCCCC1` [Compound 39], for which the “mouse IL-6” value in test [1] (Table 3, R^1 series) is 3. The “mouse IP-10” value in test [2] (Table 3, R^1 series) is recorded as under 1. The “mouse TLR4” value in test [3] (Table 3, R^1 series) stood at 6. In test [4] (Table 3, R^1 series), the “human IL-8” value is reported as under 1. Further, the “human TLR4” value in test [5] (Table 3, R^1 series) is reported as 3.
Take `O=C(CSc1nc2c([nH]c3ccccc32)c(=O)n1-c1ccccc1)NC1CCC1` [Compound 12]: the “mouse IL-6” value in test [1] (Table 2, R^2 series) is recorded as 35. Besides, in test [2] (Table 2, R^2 series), the “mouse IP-10” value is reported as 66. In test [3] (Table 2, R^2 series), the “mouse TLR4” value is given as 18. Also, in test [4] (Table 2, R^2 series), the “human IL-8” value came out at 19. Moreover, in test [5] (Table 2, R^2 series), the “human TLR4” value was determined as 32.
For `O=C(CSc1nc2c([nH]c3ccccc32)c(=O)n1-c1ccccc1)Nc1cccc(F)c1` [Compound 16], in that order: 14, 45, 11, 13 and 39.
Consider `N#CCn1c2ccccc2c2nc(SCC(=O)NC3CCCCC3)n(-c3ccccc3)c(=O)c21` [Compound 51], for which the “mouse IL-6” value in test [1] (setting [6]) turned out to be 98. In addition, the “mouse IP-10” value in test [2] (Table 1, R^3 series) came to 64. Further, the “mouse TLR4” value in test [3] (Table 1, R^3 series) was determined as 55. Besides, the “human IL-8” value in test [4] (Table 1, R^3 series) turned out to be 30. Besides, the “human TLR4” value in test [5] (Table 1, R^3 series) stood at 19.
As for `CCCCCCNC(=O)CSc1nc2c([nH]c3ccccc32)c(=O)n1-c1ccccc1` [Compound 25], the “mouse IL-6” value in test [1] (Table 2, R^2 series) is recorded as under 1. In test [2] (Table 2, R^2 series), the “mouse IP-10” value is under 1. Besides, the “mouse TLR4” value in test [3] (Table 2, R^2 series) was 4. Further, in test [4] (Table 2, R^2 series), the “human IL-8” value is recorded as 7. The “human TLR4” value in test [5] (Table 2, R^2 series) stood at 8.
